In patent publication US10686136B2, “Hole transporting material, OLED display panel and electronic device comprising the same” (SHANGHAI TIANMA AM-OLED CO., LTD., priority 2016, dated 2020):
Converted amounts (≈) assume the structure as drawn.

Key:
[1] = Hole mobility rate of the hole transporting material; format: physicochemical; settings: hole transporting layer material
[2] = cited from earlier work
[3] = prior art material of CN103108859; cited from earlier work
Solubility in NMP = format: physicochemical; settings: NMP solvent
[4] = commercially available hole transporting layer material

| Structure (SMILES) | hole mobility rate [1] | other results |
| --- | --- | --- |
| Cc1cccc(-c2ccc(N(c3ccc(-c4cccc5c4CCCC5)cc3)c3ccc(-c4ccc(N(c5ccc(-c6cccc(C)c6)cc5)c5ccc(-c6cccc7c6CCCC7)cc5)c5c4CCCC5)cc3)cc2)c1 [Example 2] | 2.1×10^−4 cm^2/V·S |  |
| c1ccc(-c2ccc(N(c3ccc(-c4ccccc4)cc3)c3ccc(-c4ccc(N(c5ccc(-c6ccccc6)cc5)c5ccc(-c6ccccc6)cc5)cc4)cc3)cc2)cc1 [Com. Example 1] | 3×10^−4 cm^2/V·S |  |
| c1ccc(-c2ccc(N(c3ccc(-c4ccccc4)cc3)c3ccc(N(c4ccc(-c5ccccc5)cc4)c4ccc(-c5ccccc5)cc4)cc3)cc2)cc1 [Com. Example 4] | 2×10^−4 cm^2/V·S |  |
| CC1(C)c2ccccc2-c2ccc(N(c3ccc4c(c3)C3(c5ccccc5-c5ccccc53)c3ccccc3-4)c3ccccc3-c3ccccc3)cc21 |  | mobility rate ([2]; prior art material of CN103108859): higher; solubility [3]: good |
| c1ccc(-c2ccc(N(c3ccc(-c4ccccc4)cc3)c3ccc(-c4ccc(N(c5ccc(-c6ccccc6)cc5)c5ccc(-c6ccccc6)cc5)c5c4CCCC5)cc3)cc2)cc1 [Com. Example 3] | 7×10^−5 cm^2/V·S |  |
| Cc1cc(N(c2ccc(-c3ccccc3)cc2)c2ccc(-c3cccc4c3CCCC4)cc2)ccc1-c1ccc(N(c2ccc(-c3ccccc3)cc2)c2ccc(-c3cccc4c3CCCC4)cc2)cc1 [Example 3] | 1.8×10^−4 cm^2/V·S |  |
| c1ccc(-c2ccc(N(c3ccc(-c4ccccc4)cc3)c3ccc(N(c4ccc(-c5ccccc5)cc4)c4ccc(-c5ccccc5)cc4)cc3)cc2)cc1 [drawing 1] |  | lateral mobility rate [2, 4]: not very high; longitudinal mobility rate [2, 4]: higher |
| Cc1ccc(-c2ccc(N(c3ccc(-c4ccccc4)cc3)c3ccc(-c4ccc(N(c5ccc(-c6ccccc6)cc5)c5ccc(-c6ccc(C)cc6)cc5)cc4)cc3)cc2)cc1 [Com. Example 2] | 3.5×10^−4 cm^2/V·S | solubility in NMP (Solubility in NMP): 2200 µg/mL (≈ 2.68 mM) |
| Cc1ccc(-c2ccc(N(c3ccc(-c4ccccc4)cc3)c3ccc(-c4ccc(N(c5ccc(-c6ccccc6)cc5)c5ccc(-c6ccc(C)cc6)cc5)c5c4CCCC5)cc3)cc2)cc1 [Example 1] | 0.00041 cm²/(V·s) | solubility in NMP (Solubility in NMP): 10000 µg/mL (≈ 11.4 mM) |
| Cc1ccccc1-c1ccc(N(c2ccc(-c3ccccc3)cc2)c2ccc(-c3ccc(N(c4ccc(-c5ccccc5)cc4)c4ccc(-c5ccccc5C)c5c4CCCC5)c4c3CCCC4)cc2)c2c1CCCC2 [Example 4] | 1.9×10^−4 cm^2/V·S |  |
